Measured values as given in patent US11365263B2, “Bifunctional cytotoxic agents containing the CTI pharmacophore” (PFIZER INC., priority 2015, dated 2022).
pIC50: −log10 of the molar value.

Tests used:
Type in all cases: cell-based
[1] = tested on: N87 (human gastric carcinoma); assay: Cytotoxicity assay for payloads (MTS), N87; details: 96 h, N87 cells, four days incubation, read-out: Free payload potency (IC50), N87
Description: (§1) Cancer cell lines were obtained from ATCC (Manassas, Va.). N87 (human gastric carcinoma derived from metastatic liver site). HL60 (leukemia) and MDA-MB-361 DYT2 (human breast carcinoma MDA-MB-361) were grown in RPMI 1640 media. All media were supplemented with 10% fetal bovine serum, 1% sodium pyruvate, and 1% L-glutamine (Invitrogen, Grand Island, N.Y.). Human umbilical vein endothelial cells (HUVEC) were obtained from Lonza (Allendale, N.J.) and maintained in EGM2 media supplemented with EGM-2 SingleQuots (Lonza #CC-4176). All cells were maintained in a humidified incubator (37° C., 5% CO2).
(§2) Cytotoxicity Assay Procedure for Payloads
(§3) Cells in 100 μl medium were cultured in a 96-well plate. Cancer cell lines treated with the indicated compounds by adding 50 μl of 3× stocks in duplicate at 10 concentrations. Cells were incubated with compounds for four days, then 30 μl of CellTiter® 96 AQueous One MTS Solution (Promega Cat #G3582) was added to the cells, incubated 1.5 hr at 37° C., then absorbance measured at 490 nm on a Victor plate reader (Perkin Elmer, Waltham, Mass.). Relative cell viability was determined as a percentage of untreated control wells. IC50 values were calculated using four parameter logistic model #203 with XLfit v4.2 (IDBS, Guildford, Surry, UK).

[2] = tested on: MDA-MB-361 DYT2 (human breast carcinoma); assay: Cytotoxicity assay for payloads (MTS), MDA-MB-361 DYT2; details: 96 h, MDA-MB-361 DYT2 cells, four days incubation, read-out: Free payload potency (IC50), DYT2
Description: as §1, §2, §3

[3] = tested on: HL60 (leukemia); assay: Cytotoxicity assay for payloads (MTS), HL60; details: Homo sapiens, HL-60, 96 h, HL60 cells, four days incubation, read-out: Free payload potency (IC50), HL60
Description: as §1, §2, §3

Structure (SMILES) | pIC50 [1] | pIC50 [2] | pIC50 [3]
[2H]C([2H])(CC([2H])([2H])C(=O)N1C[C@@H](CCl)c2c1cc(OC(C)=O)c1scc(C)c21)C(=O)N1C[C@@H](CCl)c2c1cc(OC(C)=O)c1scc(C)c21 [Compound 88] | 10.39 | 11.40 | 9.39
[2H]C([2H])(C(=O)N1C[C@@H](CCl)c2c1cc(OC(C)=O)c1scc(C)c21)C([2H])([2H])C([2H])([2H])C(=O)N1C[C@@H](CCl)c2c1cc(OC(C)=O)c1scc(C)c21 [Compound 89] | 10.39 | 11.70 | 9.52
CC(=O)Oc1cc2c(c3c(C)csc13)[C@H](CCl)CN2C(=O)C12C3C4C1C1C2C3C41C(=O)N1C[C@@H](CCl)c2c1cc(OC(C)=O)c1scc(C)c21 (stereo partly drawn) [Compound 60, pentacyclo[4.2.0.0^˜2,5^˜.0^˜3,8^˜.0^˜4,7^˜]octane-1,4-diylbis[carbonyl(8S)-8-(chloromethyl)-1-methyl-7,8-dihydro-6H-thieno[3,2-e]indole-6,4-diyl]diacetate] | 9.91 | 10.10 | 11.05
[2H]C([2H])(CC(=O)N1C[C@@H](CCl)c2c1cc(OC(C)=O)c1scc(C)c21)CC(=O)N1C[C@@H](CCl)c2c1cc(OC(C)=O)c1scc(C)c21 [Compound 87] | 10.44 | 11.70 | 9.46
